Reference: the NIST ThermoML archive (doi:10.1016/j.jct.2012.09.031)
“And” between values parts separate entries of the source, which are not always exact repeats. Equal values may be shown once.

How the values were obtained:
[1] = Crystal, Calculated from knudsen effusion weight loss
[2] = molar enthalpy of vaporization or sublimation; details: 298.15 K; Crystal; Static calorimetry

O=[N+]([O-])c1ccccc1I [1-iodo-2-nitrobenzene]
[1]
Details	vapor or sublimation pressure
287.15 K	8.2e-05 kPa and 8.5e-05 kPa
289.14 K	0.000107 kPa and 0.000103 kPa
291.13 K	0.000139 kPa and 0.000141 kPa and 0.000135 kPa
293.14 K	0.000175 kPa and 0.000178 kPa and 0.000184 kPa
295.15 K	0.000224 kPa and 0.000226 kPa and 0.00023 kPa
297.14 K	0.000283 kPa and 0.000289 kPa and 0.000288 kPa
299.14 K	0.000373 kPa and 0.000375 kPa and 0.000374 kPa
301.14 K	0.000458 kPa and 0.000466 kPa and 0.000479 kPa
303.13 K	0.000609 kPa and 0.000616 kPa
305.14 K	0.000767 kPa and 0.000768 kPa and 0.000777 kPa
307.14 K	0.000974 kPa and 0.000975 kPa and 0.000998 kPa

Details	molar enthalpy [kcal/mol]
[2]	21.5

O=[N+]([O-])c1cccc(I)c1 [1-iodo-3-nitrobenzene]
[1]
Details	vapor or sublimation pressure
287.14 K	0.000148 kPa and 0.000145 kPa
289.15 K	0.000187 kPa and 0.000191 kPa
291.13 K	0.000238 kPa
293.13 K	0.000309 kPa and 0.000314 kPa
295.15 K	0.000392 kPa and 0.0004 kPa
297.14 K	0.000508 kPa and 0.000506 kPa
299.14 K	0.000641 kPa and 0.000643 kPa
301.14 K	0.000812 kPa
303.13 K	0.001033 kPa and 0.001074 kPa

Details	molar enthalpy [kcal/mol]
[2]	21.4

O=[N+]([O-])c1ccc(I)cc1 [1-iodo-4-nitrobenzene]
[1]
Details	vapor or sublimation pressure
311.18 K	9.7e-05 kPa and 9.4e-05 kPa and 9.3e-05 kPa
313.17 K	0.000121 kPa and 0.000114 kPa and 0.000118 kPa
315.11 K	0.000151 kPa and 0.00015 kPa and 0.000152 kPa
317.18 K	0.000179 kPa and 0.000193 kPa
319.13 K	0.00023 kPa and 0.000226 kPa
321.1 K	0.000282 kPa and 0.000277 kPa and 0.000283 kPa
323.18 K	0.000355 kPa and 0.000354 kPa and 0.000359 kPa
325.18 K	0.000451 kPa and 0.000436 kPa and 0.000455 kPa
327.12 K	0.00055 kPa and 0.000546 kPa and 0.000552 kPa
329.18 K	0.000672 kPa and 0.000673 kPa
331.18 K	0.000856 kPa and 0.00083 kPa and 0.000857 kPa
333.11 K	0.001045 kPa and 0.001036 kPa and 0.001018 kPa

Details	molar enthalpy [kcal/mol]
[2]	23.5
